Data as given in US4354039A, “Chlorocitric acids” (Hoffmann-La Roche Inc., priority 1981, dated 1982).
Several values for one entry are separate records, joined by “and”; a condition that tells them apart may be missing. Identical values can stand only once. Like-named read-outs stand apart in the source and are kept apart here.

Assays:
[1] = Effect of stereoisomers on food consumption of meal-fed rats (Example 14); assay type: in vivo, Charles River female rats
Description: Animals were fasted 48 hr, then meal-fed the 70% glucose diet described by A. C. […] Following 5 to 12 days alimentation on the meal-feeding regimen, rats were dosed with the appropriate compounds orally by intubation 1/2 hr before the 3 hr meal. Food cups were weighed immediately after the meal. The control group consisted of 5 to 10 rats, while the experimental group consisted of 4 to 6 rats.

[2] = Anorectic activities of stereoisomers, 3-day food consumption and body weight gain (Example 16); assay type: in vivo, Charles River female rats; conditions: 1.32 mmoles/kg oral, 3 days
Description: Charles River female rats (Charles River Breeding Laboratories, Wilmington, Mass.), weighing 196 to 210 g, were individually housed in wire-bottomed cages in a temperature-regulated (22° C.) light-controlled room (12 hr light, 6 a.m. to 6 p.m. and 12 hr dark, 6 p.m. to 6 a.m.). Animals were fasted 48 hr, then meal-fed a 70% glucose diet from 8 to 11 a.m. Following 5 to 12 days alimentation on the meal-feeding regimen, rats were dosed with the appropriate compounds orally by intubation 1/2 hr before the 3 hr meal for 3 days. The total food consumption and body weight gained during the 3 day period were determined. The control group consisted of 16 rats, while the experimental group consists of 8 rats.

[3] = Body weight and food intake in meal-fed rats, 16 day study (Example 19); assay type: in vivo, Charles River female rats; conditions: baseline
Description: Two month old Charles River female rats (Charles River Breeding Laboratories, Wilmington, Mass.) were individually housed in wire-bottomedcages in a temperature-regulated (22° C.) light-controlled room (12 hr light, 6 a.m. to 6 p.m. and 12 hr dark, 6 p.m. to 6 a.m.). […] (1) control, (2) (-)-threo-chlorocitric acid (1.0 mmoles/kg, 227 mg/kg) administered by oral intubation 30 min before the 3 hr meal, and (3) (-)-threo-chlorocitric acid (1.1 mmoles/kg, 250 mg/kg) as a dietary admixture for the 3 hr meal. Treatment was continued for 16 days. The amount of body weight gained and food consumed during the study were determined.

isolated rat hepatocytes = assay: Fatty acid and cholesterol synthesis and CO2 production in isolated hepatocytes (Example 23); assay type: cell-based, Female Charles River rats; conditions: for activity at 2000 µM: Rattus norvegicus, Hepatocyte, 1 h
Description: Female Charles River rats were fasted 48 hr, then meal-fed a 1% corn oil, 70% glucose diet for 7 to 14 days from 8 to 11 a.m. The isolated rat hepatocytes were prepared by perfusing the liver in situ. The hepatocytes were incubated in an oscillating water bath at 37° C. for 60 min. […] All incubations were done in triplicate and all experiments were repeated at least twice. […] The contents of the center well were transferred to scintillation counting fluid and ^14 CO2 content was determined. […] The media was then acidified, extracted with hexane, and the extract counted (to determine the rate of lipogenesis). The conversion of ^3 H2 O and [^14 C]alanine into fatty acids or sterols was determined in a PDS/3, Mark II liquid scintillation counting system.

[4] = Effect on stomach emptying, [14C] glucose load (Example 25); assay type: in vivo, Rats; conditions: 0.33 mmoles/kg oral, 60 min after [14C] glucose load
Description: Rats were trained to consume a 3 hr 70% glucose meal from 8 a.m. to 11 a.m. daily. On the experimental day, compounds were administered orally by intubation 30 min before a [^14 C] glucose load was given also by intubation. […] Sixty minutes later the rats were killed by decapitation; blood and stomachs were collected on ice.
Data are expressed as follows: dpm×10^3 per ml of serum and dpm×10^3 per stomach.

[5] = Food intake in dogs, pyramiding oral doses (Examples 26 and 27); assay type: in vivo, beagle dogs
Description: Twelve beagle dogs of both sexes weighing 7.6-12.2 kg were used for this test. The test compounds were contained in gelatin capsules for oral administration to two dogs of each sex. The animals were weighed and food consumption calculated daily excluding weekends throughout the test period. Each animal received 800 grams of diet daily consisting of 400 grams of Wayne pellet dog food mixed with 400 ml distilled water. The animals received pyramiding oral doses of the test compound over the three week period. On Monday and Tuesday of the first week the animals were weighed and food consumption was recorded (control). […] Doses of 30, 100 and 300 mg/kg were administered on Monday, Wednesday and Friday respectively during the second week. A final dose of 1000 mg/kg was administered on Monday of the third week.
Food intake was determined by the procedure at pyramiding doses described in EXAMPLE 26.

[6] = Anorectic activity, acute, pyramiding dose and chronic studies (summary statements); assay type: in vivo, mammals; conditions: in words
[7] = test day 8, dose 100 mg/kg oral
[8] = test day 10, dose 300 mg/kg oral
[9] = test day 13, dose 1000 mg/kg oral

O=C(O)C[C@@](O)(C(=O)O)[C@@H](Cl)C(=O)O [(-)-threo-Chlorocitric acid]
Food Consumption, % of control ([1]; 0.66 mmoles/kg oral): 59 % of control
Food Consumption, % of control ([1]; 2.63 mmoles/kg oral): 16 % of control
3-Day Body Weight Gain, % of initial body weight [2]: -11.0 % of initial body weight
3-Day Food Consumption, % of control [2]: 37 % of control
IBW, initial body weight ([3]; dietary admixture 1.1 mmoles (250 mg)/kg/day): 192 ± 5 g
IBW, initial body weight ([3]; oral intubation 1.0 mmoles (227 mg)/kg/day): 189 ± 3 g
CO2 Production, [14C]alanine converted (isolated rat hepatocytes; 2 mM, 60 min, 37° C., 2000 µM): 91 % of control
Cholesterol Synthesis, [14C]alanine converted (isolated rat hepatocytes; 2 mM, 60 min, 37° C., 2000 µM): 92 % of control
Fatty Acid Synthesis, 3H2O converted (isolated rat hepatocytes; 2 mM, 60 min, 37° C., 2000 µM): 95 % of control
Fatty Acid Synthesis, [14C]alanine converted (isolated rat hepatocytes; 2 mM, 60 min, 37° C., 2000 µM): 124 % of control and 96 % of control
activity at 2000 µM (isolated rat hepatocytes; 2 mM, 60 min, 37° C., read-out: CO2 Production, [14C]alanine converted): 83%
activity at 2000 µM (isolated rat hepatocytes; 2 mM, 60 min, 37° C., read-out: Cholesterol Synthesis, 3H2O converted): 116%
activity at 2000 µM (isolated rat hepatocytes; 2 mM, 60 min, 37° C., read-out: Cholesterol Synthesis, [14C]alanine converted): 88%
activity at 2000 µM (isolated rat hepatocytes; 2 mM, 60 min, 37° C., read-out: Fatty Acid Synthesis, 3H2O converted): 106%
inhibition of lipid (fatty acid) and cholesterol syntheses (isolated rat hepatocytes; in words): devoid of metabolic activity as an inhibitor of lipid and cholesterol syntheses
Serum, % of control [4]: 33 % of control
Stomach Contents, % of control [4]: 312 % of control
Food Consumption ([5]; test day 1, dose 3 mg/kg oral): 450 ± 165 g
Food Consumption, % of control ([5]; test day 1, dose 3 mg/kg oral): 60 % of control
Food Consumption ([5]; test day 2, no dose): 646 ± 83 g
Food Consumption, % of control ([5]; test day 2, no dose): 87 % of control
Food Consumption ([5]; test day 3, dose 10 mg/kg oral): 440 ± 121 g
Food Consumption, % of control ([5]; test day 3, dose 10 mg/kg oral): 59 % of control
Food Consumption ([5]; test day 6, dose 30 mg/kg oral): 406 ± 86 g
Food Consumption, % of control ([5]; test day 6, dose 30 mg/kg oral): 55 % of control
Food Consumption ([5]; test day 7, no dose): 668 ± 115 g
Food Consumption, % of control ([5]; test day 7, no dose): 90 % of control
Food Consumption [5, 7]: 142 ± 38 g
Food Consumption, % of control [5, 7]: 19 % of control
Food Consumption ([5]; test day 9, no dose): 619 ± 62 g
Food Consumption, % of control ([5]; test day 9, no dose): 83 % of control
Food Consumption [5, 8]: 55 ± 39 g
Food Consumption, % of control [5, 8]: 7 % of control
Food Consumption [5, 9]: 56 ± 22 g
Food Consumption, % of control [5, 9]: 8 % of control
Food Consumption ([5]; test day 14, no dose): 439 ± 163 g
Food Consumption, % of control ([5]; test day 14, no dose): 59 % of control
Food Consumption ([5]; test day 15, no dose): 583 ± 149 g
Food Consumption, % of control ([5]; test day 15, no dose): 78 % of control
Food Consumption ([5]; test day 16, no dose): 600 ± 76 g
Food Consumption, % of control ([5]; test day 16, no dose): 81 % of control
Food Consumption ([5]; test day 17, no dose): 677 ± 73 g
Food Consumption, % of control ([5]; test day 17, no dose): 91 % of control
Food Consumption ([5]; test day 21, no dose): 644 ± 100 g
Food Consumption, % of control ([5]; test day 21, no dose): 87 % of control
Food Consumption ([5]; test day 22, no dose): 800 ± 0 g
Food Consumption, % of control ([5]; test day 22, no dose): 108 % of control
Food Consumption ([5]; test day 23, no dose): 596 ± 121 g
Food Consumption, % of control ([5]; test day 23, no dose): 80 % of control
Food Consumption ([5]; test day 24, no dose): 695 ± 79 g
Food Consumption, % of control ([5]; test day 24, no dose): 94 % of control
Food Consumption ([5]; test day 27, no dose): 732 ± 68 g
Food Consumption, % of control ([5]; test day 27, no dose): 99 % of control
Food Consumption ([5]; test day 28, no dose): 775 ± 26 g
Food Consumption, % of control ([5]; test day 28, no dose): 104 % of control
activity in the acute meal-fed assay utilizing three diets and in pyramiding dose studies, reduction in food consumption [6]: significantly more active
appetite suppression and reduction of body weight gain ([6]; short- and long-term chronic studies): suppressed appetite and reduced body weight gain in mammals more efficaciously than hydroxycitric acid or citric acid
